According to patent publication US11718624B2, “Solid state forms of substituted pyrazolopyrimidines and uses thereof” (KSQ Therapeutics, Inc., priority 2020, dated 2023):
Like-named read-outs stand apart in the source and are kept apart here.

What was measured:
[1] = Distribution in mouse brain and plasma after repeated oral dosing; type: in vivo; conditions: female NOD SCID mice; for concentration at 4 h / Kp at 4 h: 4 h (Day 28); for concentration at 24 h / Kp at 24 h: 24 h (Day 28); for Kp at 4 h / Kp at 24 h: brain/plasma, read-out: B/P Ratio
Experimental: Female NOD SCID mice of an age between 6-8 weeks and a body weight range of 18-22 g were purchased from Beijing Anikeeper Biotech Co, Ltd. Animals were habituated to the environment for at least 7 days prior to study initiation. Mice were dosed with Crystalline Form 2 at either 100 mg/kg or 300 mg/kg dose levels via oral gavage for 28 days. After 24 hours following 27 doses of compound, three mice were euthanized via CO2. After four hours following 28 doses of compound, three mice were euthanized via CO2. At each time point the whole brain was collected. In addition, approximately 0.03 mL of blood was collected at each time point and centrifuged at 4000 G for 5 minutes at 4° C. to provide plasma. Samples were then stored in a freezer at −75±15° C. prior to LC-MS/MS analysis. Concentrations of compound in brain homogenates (ng/g) and plasma (ng/ml) were then analyzed using an LC-MS/MS method. The PK data were described using descriptive statistics such as mean with standard deviation.

[2] = Mouse pharmacokinetic study, single oral dose, plasma; type: in vivo, NOD/SCID mice
Experimental: Mouse pharmacokinetic (PK) studies were conducted using Crystalline Form A of 6-(4-cyclopropyl-6-methoxypyrimidin-5-yl)-1-(4-(1-isopropyl-4-(trifluoromethyl)-1H-imidazol-2-yl)benzyl)-1H-pyrazolo[3,4-d]pyrimidine, as disclosed herein, Crystalline Form 2 of a gentisic acid co-crystal of 6-(4-cyclopropyl-6-methoxypyrimidin-5-yl)-1-(4-(1-isopropyl-4-(trifluoromethyl)-1H-imidazol-2-yl)benzyl)-1H-pyrazolo[3,4-d]pyrimidine, as disclosed herein, and Crystalline Form 8 of a benzoic acid co-crystal of 6-(4-cyclopropyl-6-methoxypyrimidin-5-yl)-1-(4-(1-isopropyl-4-(trifluoromethyl)-1H-imidazol-2-yl)benzyl)-1H-pyrazolo[3,4-d]pyrimidine, as disclosed herein.
The PK studies consisted of single dose oral exposure studies, which were conducted in female NOD/SCID mice (approximately 6 to 8 weeks, and 20-30 g at the time of study) using a compound dose of 300 mg/kg and a dosing volume of 10 mL/kg. The mice were fasted overnight prior to dosing. Animals had free access to food and water post-dosing.
(§1) Blood was sampled serially from the dorsal metatarsal vein at pre-dose, 0.25, 0.5, 1, 2, 4, 8, 24, 48 (crystalline Form 2 only), and 72 hours (crystalline Form 2 only) post PO dosing. Approximately 0.03 mL blood was collected at each time point and centrifuged at 4000 G for 5 minutes at 4° C. to provide plasma. The plasma samples were then stored in a freezer at −75±15° C. prior to LC-MS/MS analysis.
(§2) Concentrations of each compound in the plasma samples were then analyzed using an LC-MS/MS method. WinNonlin (Phoenix™, version 6.1) or other similar software was used for PK calculations. The following PK parameters were calculated, whenever possible from the plasma concentration versus time data: Cmax, Tmax, T1/2, AUCinf, and AUClast. The PK data were described using descriptive statistics such as mean with standard deviation.
Mouse pharmacokinetic (PK) studies were conducted using Crystalline Form 8 of 6-(4-cyclopropyl-6-methoxypyrimidin-5-yl)-1-(4-(1-isopropyl-4-(trifluoromethyl)-1H-imidazol-2-yl)benzyl)-1H-pyrazolo[3,4-d]pyrimidine, as disclosed herein.
as §1, with “8,” for “8, 24, 48 (crystalline Form 2 only),”, “24” for “72”, “hours” for “hours (crystalline Form 2 only)”
as §2, with “of” for “of each”

[3] = Distribution in rat brain and plasma after single oral dose; type: in vivo, Sprague Dawley rats; conditions: single oral dose 100 mg/kg; for Kp / Cmax / Tmax / half-life / AUC(0-inf): Sprague Dawley, rat; for Kp: brain and plasma, read-out: B/P Conc. Ratio at tmax
Experimental: Male and female Sprague Dawley rats were purchased from Beijing Anikeeper Biotech Co, Ltd. Animals were habituated to the environment prior to study initiation. Rats were dosed with single dose of 100 mg/kg crystalline Form 2 via oral gavage. The rats were fasted overnight prior to dosing. Animals had access to food from 2 hours post dose and free access to water throughout the study. Approximately 0.2 mL of blood was sampled via jugular vein at each time point and centrifuged at 4000 G for 5 minutes at 4° C. to provide plasma. Samples were then stored in a freezer at −75±15° C. prior to LC-MS/MS analysis. Whole brain was collected after hemoperfusion and snap frozen on dry ice prior to storage at −75±15° C. Prior to LC-MS/MS analysis whole brains were weighed and homogenized with water by tissue weight (g) to water volume (ml) ratio 1:3 before analysis. Actual concentration is the measured value multiplied by the dilution factor. The PK data were described using descriptive statistics such as mean with standard deviation.

[4] = brain, 100 mg/kg QD oral gavage, read-out: Brain Conc.
[5] = brain, 300 mg/kg QD oral gavage, read-out: Brain Conc.
[6] = plasma, 100 mg/kg QD oral gavage, read-out: Plasma Conc.
[7] = plasma, 300 mg/kg QD oral gavage, read-out: Plasma Conc.
[8] = Mean, female NOD/SCID mice, single PO dose 300 mg/kg, plasma, 300 mg/kg
[9] = Mouse 8, single PO dose 300 mg/kg, plasma, 300 mg/kg
[10] = Mouse 9, single PO dose 300 mg/kg, plasma, 300 mg/kg
[11] = female, NOD/SCID, mouse, plasma, po, 300 mg/kg, Mouse 11, single PO dose 300 mg/kg
[12] = female, NOD/SCID, mouse, plasma, po, 300 mg/kg, Mouse 12, single PO dose 300 mg/kg

Compound `COc1ncnc(C2CC2)c1-c1ncc2cnn(Cc3ccc(-c4nc(C(F)(F)F)cn4C(C)C)cc3)c2n1` [Crystalline Form 2, 6-(4-cyclopropyl-6-methoxypyrimidin-5-yl)-1-(4-(1-isopropyl-4-(trifluoromethyl)-1H-imidazol-2-yl)benzyl)-1H-pyrazolo[3,4-d]pyrimidine] has a concentration at 4 h [1, 4] of 1520 ± 559 ng/g, a concentration at 24 h [1, 4] of 19.5 ng/g and a concentration at 4 h [1, 5] of 6500 ± 1050 ng/g. It also gave a concentration at 24 h [1, 5] of 66.1 ± 81.7 ng/g, a Kp at 4 h ([1]; 100 mg/kg QD oral gavage) of 0.306 ± 0.125 and a Kp at 24 h ([1]; 100 mg/kg QD oral gavage) of 0.091 ± 0.014. For the same compound, the Kp at 4 h ([1]; 300 mg/kg QD oral gavage) was 0.424 ± 0.018, the Kp at 24 h ([1]; 300 mg/kg QD oral gavage) was 0.102 ± 0.007 and the concentration at 4 h [1, 6] was 5040 ± 694 ng/mL. For the same compound, the concentration at 24 h [1, 6] was 178 ± 165 ng/mL, the concentration at 4 h [1, 7] was 15300 ± 2320 ng/mL and the concentration at 24 h [1, 7] was 667 ± 852 ng/mL. For the same compound, the Cmax [2, 8] was 28900 ng/mL, the Tmax ([2]; Mouse 7, single PO dose 300 mg/kg, plasma) was 8.00 h and the AUClast [2, 9] was 835.713 µg·h/mL. It also gave a Cmax [2, 9] of 28900 ng/mL, a Cmax [2, 10] of 29000 ng/mL and a Tmax [2, 10] of 12.0 h. For the same compound, the “mouse oral exposure levels compared with crystalline Form A (freebase)” value ([2]; at about 300 mg/kg) was “higher exposure levels”, the half-life ([2]; female, NOD/SCID, mouse, plasma, po, 300 mg/kg, Mouse 7, single PO dose 300 mg/kg) was 4.03 h and the “AUC0−∞” value ([3]; Female SD rats, brain) was 120933 ng·h/g. The “AUC0−∞” value ([3]; Male SD rats, brain) was 60596 ng·h/g, the Kp ([3]; Female SD rats) was 0.58 and the Kp ([3]; Male SD rats) was 0.731. It also gave a Cmax ([3]; Female SD rats, brain) of 5610 ng/g, a Tmax ([3]; Female SD rats, brain) of 8 h and a half-life ([3]; Female SD rats, brain) of 12.8 h. For the same compound, the AUC(0-inf) ([3]; Female SD rats, plasma) was 266 µg·h/mL, the Cmax ([3]; Female SD rats, plasma) was 9760 ng/mL and the Tmax ([3]; Female SD rats, plasma) was 8 h. It also gave a half-life ([3]; Female SD rats, plasma) of 16.9 h, a Cmax ([3]; Male SD rats, brain) of 3900 ng/g and a Tmax ([3]; Male SD rats, brain) of 8 h. The half-life ([3]; Male SD rats, brain) was 7.43 h, the AUC(0-inf) ([3]; Male SD rats, plasma) was 102 µg·h/mL and the Cmax ([3]; Male SD rats, plasma) was 5300 ng/mL. It also gave a Tmax ([3]; Male SD rats, plasma) of 8 h and a half-life ([3]; Male SD rats, plasma) of 9.13 h.
With `COc1ncnc(C2CC2)c1-c1ncc2cnn(Cc3ccc(-c4nc(C(F)(F)F)cn4C(C)C)cc3)c2n1` [Crystalline Form 8, 6-(4-cyclopropyl-6-methoxypyrimidin-5-yl)-1-(4-(1-isopropyl-4-(trifluoromethyl)-1H-imidazol-2-yl)benzyl)-1H-pyrazolo[3,4-d]pyrimidine] the Cmax [2, 8] was 14770 ng/mL, the T1/2 [2, 8] was 6.8 h and the Tmax [2, 8] was 3.50 h. For the same compound, the AUClast ([2]; Mean, female NOD/SCID mice, single PO dose 300 mg/kg, plasma, sampling to 24 h (to 72 h for Form 2), 300 mg/kg) was 182.045 µg·h/mL, the AUC(0-t) ([2]; female, NOD/SCID, mouse, plasma, po, 300 mg/kg, Mouse 10, single PO dose 300 mg/kg) was 145 µg·h/mL and the Cmax ([2]; female, NOD/SCID, mouse, plasma, po, 300 mg/kg, Mouse 10, single PO dose 300 mg/kg, plasma, read-out: Cmax) was 8810 ng/mL. The Tmax ([2]; female, NOD/SCID, mouse, plasma, po, 300 mg/kg, Mouse 10, single PO dose 300 mg/kg, plasma, read-out: Tmax) was 8 h, the AUC(0-t) [2, 11] was 168 µg·h/mL and the half-life [2, 11] was 11.4 h. For the same compound, the Cmax ([2]; female, NOD/SCID, mouse, plasma, po, 300 mg/kg, Mouse 11, single PO dose 300 mg/kg, plasma, read-out: Cmax) was 18200 ng/mL, the Tmax ([2]; female, NOD/SCID, mouse, plasma, po, 300 mg/kg, Mouse 11, single PO dose 300 mg/kg, plasma, read-out: Tmax) was 0.5 h and the AUC(0-t) [2, 12] was 233 µg·h/mL. The half-life [2, 12] was 2.08 h, the Cmax ([2]; female, NOD/SCID, mouse, plasma, po, 300 mg/kg, Mouse 12, single PO dose 300 mg/kg, plasma, read-out: Cmax) was 17300 ng/mL and the Tmax ([2]; female, NOD/SCID, mouse, plasma, po, 300 mg/kg, Mouse 12, single PO dose 300 mg/kg, plasma, read-out: Tmax) was 2 h.
`COc1ncnc(C2CC2)c1-c1ncc2cnn(Cc3ccc(-c4nc(C(F)(F)F)cn4C(C)C)cc3)c2n1` [Crystalline Form A, 6-(4-cyclopropyl-6-methoxypyrimidin-5-yl)-1-(4-(1-isopropyl-4-(trifluoromethyl)-1H-imidazol-2-yl)benzyl)-1H-pyrazolo[3,4-d]pyrimidine] gave a Tmax [2, 10] of 4.00 h, a Tmax ([2]; female, NOD/SCID, mouse, plasma, po, 300 mg/kg, Mouse 7, single PO dose 300 mg/kg, plasma, read-out: Tmax) of 8 h and a half-life ([2]; female, NOD/SCID, mouse, plasma, po, 300 mg/kg, Mouse 8, single PO dose 300 mg/kg) of 6.79 h.
